# From article PMC3340383, “Synthesis and Evaluation of a Series of 2-Substituted-5-Thiopropylpiperazine (Piperidine)-1,3,4-Oxadiazoles Derivatives as Atypical Antipsychotics” (PLoS ONE, 2012)
# Marks after values point to notes of the source that are not given here.
# Legend:
# [1] = target: T1, dopamine D2 receptor (Rattus norvegicus, UniProt P61169); experiment: D2 dopaminergic binding assay ([3H]spiperone, rat striatum); conditions: [3H]spiperone, rat striatum; mean of three experiments; >10000 marked b: Ki not calculated, inhibition at 10 µM too low; read-out: Ki±SEM, D2
# T1 construct: Rat striatum was homogenized in 20 volumes of ice-cold 50 mM Tris-HCl buffer; from tissue; host or cells: rat striatum
# Method: (§1) All the new compounds were dissolved in 5% DMSO. The following specific radioligands and tissue sources were used: (a) serotonin 5-HT1A receptor, [^3H]8-OH-DPAT, rat brain cortex; (b) serotonin 5-HT2A receptor, [^3H]ketanserin, rat brain cortex; (c) serotonin 5-HT2C receptor, [^3H]mesulergine, rat brain cortex; (d) dopamine D2 receptor, [^3H]spiperone, rat striatum; (e) dopamine D3 receptor, [^3H]spiperone, rat olfactory tubercle (f) histamine H1 receptor, [^3H] pyrilamine, guinea pig cerebellum.
# (§2) Total binding was determined in the absence of no-specific binding and compounds. Specific binding was determined in the presence of compounds. Non-specific binding was determined as the difference between total and specific binding.
# (§3) Percentage of inhibition (%) = (total binding − specific binding)×100%/(total binding − nonspecific binding).
# (§4) Ki values were calculated based on the Cheng and Prussoff equation: Ki = IC50/(1+C/Kd) where C represents the concentration of the hot ligand used and Kd its receptor dissociation constant were calculated for each labeled ligand. Mean Ki values and SEM were reported for at least three independent experiments.
# Rat striatum was homogenized in 20 volumes of ice-cold 50 mM Tris-HCl buffer (pH 7.7) using an ULTRA TURAX homogeniser, and centrifuged twice for 10 min at 48,000 g with resuspension of the pellet in fresh buffer. The final pellet was resuspended in 50 mM ice-cold Tris-HCl containing 120 mM NaCl, 5 mM KCl, 2 mM CaCl2, 1 mM MgCl2, 0.1% ascorbic acid and 5 µM pargyline.
# Total binding each assay tube was added 900 µL of the tissue suspension, 50 µL of 0.5 nM [^3H]spiperone (16.2 Ci/mmol; Perkin Elmer Life Sciences, Boston, MA, USA), 50 µL Tris-HCl buffer containing 120 mM NaCl, 5 mM KCl, 2 mM CaCl2, 1 mM MgCl2, 0.1% ascorbic acid and 5 µM pargyline.
# Non-specific binding each assay tube was added 900 µL of the tissue suspension, 50 µL of 0.5 nM [^3H]spiperone, 50 µL of 10 µM (+)-butaclamol.
# Specific binding each assay tube was added 900 µL of the tissue suspension, 50 µL of 0.5 nM [^3H]spiperone, 50 µL of new compounds or reference drug.
# (§5) The incubation was followed by a rapid vacuum filtration through Whatman GF/B glass filters, and the filtrates were washed twice with 5 mL cold buffer and transferred to scintillation vials. Scintillation fluid (3.0 mL) was added and the radioactivity bound was measured using a Beckman LS 6500 liquid scintillation counter.
# [2] = target: T2, serotonin 5-HT2A receptor (Rattus norvegicus, UniProt P14842); experiment: 5-HT2A binding assay ([3H]ketanserin, rat brain cortex); conditions: [3H]ketanserin, rat brain cortex; mean of three experiments; >10000 marked b: Ki not calculated, inhibition at 10 µM too low; read-out: Ki±SEM, 5HT2A
# T2 construct: Rat cerebral cortex was homogenized in 20 volumes of ice-cold Tris-HCl buffer; from tissue; host or cells: rat brain (cerebral) cortex
# Method: as §1, §2, §3, §4
# Rat cerebral cortex was homogenized in 20 volumes of ice-cold Tris-HCl buffer (50 mM, pH 7.7) using an ULTRA TURAX homogeniser, and centrifuged at 32000 g for 20 min. The resulting pellet was resuspended in the same quantity of the buffer centrifuged for 20 min. The final pellet was resuspended in 50 volumes of the Tris-HCl buffer.
# Total binding each assay tube was added 900 µL of the tissue suspension, 50 µL of 0.6 nM [^3H]ketanserin (60.0 Ci/mmol, Perkin Elmer Life Sciences, Boston, MA, USA), 50 µL Tris-HCl buffer.
# Non-specific binding each assay tube was added 900 µL of the tissue suspension, 50 µL of 0.6 nM [^3H]ketanserin, 50 µL of 10 µM methisergide.
# Specific binding each assay tube was added 900 µL of the tissue suspension, 50 µL of 0.6 nM [^3H]ketanserin, […] of new compounds or reference drug.
# as §5
# [3] = target: T3, dopamine D3 receptor (Rattus norvegicus, UniProt P19020); experiment: D3 dopaminergic binding assay ([3H]spiperone, rat olfactory tubercle); conditions: mean of three experiments, read-out: Ki±SEM, D3
# T3 construct: Rat olfactory tubercle was homogenized in 20 volumes of ice-cold 50 mM Hepes Na; from tissue; host or cells: rat olfactory tubercle
# Method: as §1, §2, §3, §4, §5
# [4] = system: mice; experiment: Acute toxicity study; assay type: in vivo; conditions: oral, survival after 24 h, highest dose 2000 mg/kg
# Method: The number of surviving animals was recorded after 24 h of drug administration, and the percent mortality in each group was calculated.
# [5] = system: apomorphine-induced climbing behavior in mice; experiment: Apomorphine-induced climbing; assay type: in vivo; conditions: mice, po; 95% confidence limits in parentheses
# Method: . […] . Animals were then challenged at 30 minutes post-injection with 1.0 mg/kg of the apomorphine in 0.9% NaCl+0.1% ascorbic acid, placed in cylindrical wire cages (12 cm in diameter, 14 cm in height), and observed for climbing behavior at 10, 20 and 30 min post dose. The climbing behaviour was scored as follows: 3–4 paws on the cage floor = 0 score; 2 and 3 paws on the cage = 1 score; 4 paws on the cage = 2 score.
# [6] = system: catalepsy in mice; experiment: Catalepsy test (horizontal bar); conditions: po
# T1 sequence (P61169 whole entry): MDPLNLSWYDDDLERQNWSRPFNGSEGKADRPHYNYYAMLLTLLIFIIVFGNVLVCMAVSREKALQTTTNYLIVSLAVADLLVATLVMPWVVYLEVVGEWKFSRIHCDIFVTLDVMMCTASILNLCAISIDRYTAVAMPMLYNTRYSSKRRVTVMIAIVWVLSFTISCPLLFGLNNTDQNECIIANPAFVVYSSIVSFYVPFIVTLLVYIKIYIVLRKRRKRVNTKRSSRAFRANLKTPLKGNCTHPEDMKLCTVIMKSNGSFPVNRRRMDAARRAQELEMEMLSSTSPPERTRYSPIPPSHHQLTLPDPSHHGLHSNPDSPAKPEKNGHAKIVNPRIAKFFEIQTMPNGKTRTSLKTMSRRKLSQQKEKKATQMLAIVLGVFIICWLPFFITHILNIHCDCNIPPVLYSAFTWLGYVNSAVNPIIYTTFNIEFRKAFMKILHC
# T3 sequence (P19020 whole entry): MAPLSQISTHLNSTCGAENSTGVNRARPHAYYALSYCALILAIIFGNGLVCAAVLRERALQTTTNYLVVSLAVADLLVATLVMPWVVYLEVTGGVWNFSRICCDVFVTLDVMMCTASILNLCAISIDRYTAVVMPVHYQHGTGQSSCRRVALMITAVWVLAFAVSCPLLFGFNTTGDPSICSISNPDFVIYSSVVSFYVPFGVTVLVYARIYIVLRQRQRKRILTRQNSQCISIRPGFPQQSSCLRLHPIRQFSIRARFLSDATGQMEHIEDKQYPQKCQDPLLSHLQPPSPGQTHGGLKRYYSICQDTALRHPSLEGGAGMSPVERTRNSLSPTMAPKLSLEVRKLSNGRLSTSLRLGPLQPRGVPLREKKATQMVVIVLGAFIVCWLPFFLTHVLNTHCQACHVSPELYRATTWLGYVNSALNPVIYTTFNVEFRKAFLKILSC
# T2 sequence (P14842 whole entry): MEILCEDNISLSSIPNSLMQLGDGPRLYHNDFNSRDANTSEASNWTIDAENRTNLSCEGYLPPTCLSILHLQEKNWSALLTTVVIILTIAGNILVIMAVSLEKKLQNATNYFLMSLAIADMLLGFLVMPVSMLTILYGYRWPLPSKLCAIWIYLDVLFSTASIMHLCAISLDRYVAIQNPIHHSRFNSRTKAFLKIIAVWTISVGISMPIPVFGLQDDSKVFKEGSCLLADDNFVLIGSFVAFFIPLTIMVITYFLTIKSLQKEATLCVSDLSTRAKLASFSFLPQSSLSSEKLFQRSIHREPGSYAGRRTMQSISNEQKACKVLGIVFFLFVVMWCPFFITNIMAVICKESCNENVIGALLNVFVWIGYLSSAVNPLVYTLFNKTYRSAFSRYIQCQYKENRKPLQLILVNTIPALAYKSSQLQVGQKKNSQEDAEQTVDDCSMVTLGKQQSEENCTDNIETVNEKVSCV
structure (smiles),measurement,setting,value
"Fc1ccc2c(C3CCN(CCCSc4nnc(-c5cccc6ccccc56)o4)CC3)noc2c1 [Compound 22, 2-(3-(4-(6-fluorobenzo[d]isoxazol-3-yl)piperidin-1-yl)propylthio)-5-(naphthalen-1-yl)-1,3,4-oxadiazole]",Ki,[1],23 ± 2.6 nM
same,Ki,[2],1.1 ± 0.1 nM
same,Ki,[3],7.7 ± 0.6 nM
same,LD50,[4],> 2000 mg/kg
same,Apomorphine-induced climbing ED50 (A),[5],3.68 (2.79–4.86) ^a mg/kg
same,CAT (catalepsy) ED50 (C),[6],>300 mg/kg
